# Test results: publication PMC13252604, “First Generation Proteolysis Targeting Chimeras (PROTACs) for the Treatment of Progeria” (Advanced Science, 2026)
# Target: T1, progerin (Homo sapiens, UniProt P02545)
# T1 construct: endogenous in cells; host or cells: HGADFN167 human HGPS fibroblasts (Progeria Research Foundation)
# T1 sequence (P02545 1-614 isoform P02545-6): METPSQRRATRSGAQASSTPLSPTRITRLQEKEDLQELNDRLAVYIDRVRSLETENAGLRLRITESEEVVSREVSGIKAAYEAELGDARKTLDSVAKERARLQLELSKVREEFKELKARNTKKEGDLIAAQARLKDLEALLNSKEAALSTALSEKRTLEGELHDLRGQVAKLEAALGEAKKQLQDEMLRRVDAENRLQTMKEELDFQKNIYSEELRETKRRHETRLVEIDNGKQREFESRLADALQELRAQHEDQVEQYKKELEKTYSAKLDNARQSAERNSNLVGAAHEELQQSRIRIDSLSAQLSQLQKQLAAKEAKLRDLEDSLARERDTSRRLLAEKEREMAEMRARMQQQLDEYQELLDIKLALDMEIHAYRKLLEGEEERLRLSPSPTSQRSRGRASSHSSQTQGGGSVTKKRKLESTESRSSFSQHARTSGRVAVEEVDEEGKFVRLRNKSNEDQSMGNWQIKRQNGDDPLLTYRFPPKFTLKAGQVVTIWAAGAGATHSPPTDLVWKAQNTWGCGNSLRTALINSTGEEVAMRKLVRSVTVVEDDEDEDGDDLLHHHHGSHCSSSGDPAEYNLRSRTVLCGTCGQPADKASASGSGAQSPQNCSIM
# Experiment: Progerin quantification, immunoblot in human Lmna^G608G/G608G fibroblasts
# Assay type: cell-based
# Settings: human Lmna^G608G/G608G patient-derived fibroblasts, vs vehicle
# From the text: FIGURE 6 (A) Representative cropped immunoblots and progerin quantification in human Lmna^G608G/G608G fibroblasts. MW, molecular weight (in kDa) markers. […] (B) PROTAC 2 increases cell proliferation (upper panels) and decreases the number of misshapen nuclei (lower panels). White arrows highlight selected misshapen nuclei. (C) PROTAC 2 decreases senescence‐associated β‐galactosidase (SA‐βgal) activity, interleukin (IL) 6, p16 and p21 senescent markers. Bar graphs show mean±sem of 2 (SA‐βgal and p21) or 3 (IL‐6 and p16) independent experiments performed in triplicate. (D) PROTAC 2 decreases phosphorylated histone 2AX (pH2AX) and increases trimethylated histone 3 (H3K9Me3) levels. (E) PROTAC 2 increases the oxygen consumption rate (OCR), ATP production and the number of healthy mitochondria in human progeroid cells. […] Data were analysed using one‐way ANOVA followed by Dunnett's post–hoc test vs vehicle (panel A) or vs G608G cells (panels B‐E). ^*, p < 0.05; ^**, p < 0.01; ^***, p < 0.001; ^****, p < 0.0001. […]
# was saturated at 100 ppm. Relative STD effects were calculated by comparing the intensity of the signals in the STD-NMR spectrum with signal intensities of the reference spectrum (off-resonance). The STD signal with the highest intensity was set to 100%, a nd other STD signals were calculated accordingly. […]
# Cell viability was assessed as previously described.[64] […]
row,SMILES,progerin levels (immunoblot quantification)
1,CC1(C)Oc2cc3oc(=O)ccc3cc2C[C@@H]1OC(=O)CCCCCNc1cccc2c1C(=O)N(C1CCC(=O)NC1=O)C2=O (some centres unmarked) [compound 2],the most potent in human cells
2,CC1(C)Oc2cc3oc(=O)ccc3cc2C[C@@H]1OC(=O)CCCCC(=O)Oc1ccc2c(c1)CCCN2C(=O)CCl [compound 12],exhibited significant activity in human cells
